ChEMBL document CHEMBL1201862, “PubChem BioAssay data set” (2004)
Each block holds one molecule with its values, some of them ahead of it. Activity calls are given as the source filed them.

Legend:
[1] = target: T1, RNA-binding protein pos-1 (Caenorhabditis elegans, UniProt G5EF15); test: inhibitors of POS-1/mex-3 RNA binding, dose response, biochemical, fluorescence polarization (AID 1964);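 note: purified POS-1 fused to maltose binding protein made in E. coli; potency of compounds blocking POS-1 binding to fluorescent RNA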
T1 sequence (G5EF15 whole entry): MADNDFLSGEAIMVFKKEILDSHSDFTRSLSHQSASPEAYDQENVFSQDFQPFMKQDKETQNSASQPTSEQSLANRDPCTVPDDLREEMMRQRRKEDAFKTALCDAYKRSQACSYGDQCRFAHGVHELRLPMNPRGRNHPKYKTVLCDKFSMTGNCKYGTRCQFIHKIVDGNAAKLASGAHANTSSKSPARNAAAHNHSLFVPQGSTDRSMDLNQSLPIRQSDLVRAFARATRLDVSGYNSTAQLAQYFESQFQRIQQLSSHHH

[2] = target: T2, Zinc finger protein mex-5 (Caenorhabditis elegans, UniProt Q9XUB2); test: MEX-5/TCR-2 RNA interaction inhibitors, dose response, biochemical, C. elegans, fluorescence polarization (AID 1960)
T2 sequence (Q9XUB2 whole entry): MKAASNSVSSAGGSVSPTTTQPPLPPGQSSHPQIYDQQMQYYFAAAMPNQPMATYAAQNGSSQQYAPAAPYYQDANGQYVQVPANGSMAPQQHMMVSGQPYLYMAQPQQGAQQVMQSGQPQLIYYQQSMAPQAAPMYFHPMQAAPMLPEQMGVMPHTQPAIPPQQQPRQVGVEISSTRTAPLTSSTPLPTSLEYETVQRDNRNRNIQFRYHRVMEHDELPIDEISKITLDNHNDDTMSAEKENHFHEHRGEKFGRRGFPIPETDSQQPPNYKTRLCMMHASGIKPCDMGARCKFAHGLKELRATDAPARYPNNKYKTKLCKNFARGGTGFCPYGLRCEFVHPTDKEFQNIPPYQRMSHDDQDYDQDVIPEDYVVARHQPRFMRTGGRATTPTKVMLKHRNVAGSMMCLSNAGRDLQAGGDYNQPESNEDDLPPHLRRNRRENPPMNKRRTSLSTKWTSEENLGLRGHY

[3] = target: T3, Short transient receptor potential channel 4 (Mus musculus, UniProt Q9QUQ5); test: mouse TRPC4 channel activators, dose response, cell-based, HEK293 TRPC4/mu-opioid, Fluo-4 calcium (AID 434937); assay type: functional
T3 sequence (Q9QUQ5 whole entry): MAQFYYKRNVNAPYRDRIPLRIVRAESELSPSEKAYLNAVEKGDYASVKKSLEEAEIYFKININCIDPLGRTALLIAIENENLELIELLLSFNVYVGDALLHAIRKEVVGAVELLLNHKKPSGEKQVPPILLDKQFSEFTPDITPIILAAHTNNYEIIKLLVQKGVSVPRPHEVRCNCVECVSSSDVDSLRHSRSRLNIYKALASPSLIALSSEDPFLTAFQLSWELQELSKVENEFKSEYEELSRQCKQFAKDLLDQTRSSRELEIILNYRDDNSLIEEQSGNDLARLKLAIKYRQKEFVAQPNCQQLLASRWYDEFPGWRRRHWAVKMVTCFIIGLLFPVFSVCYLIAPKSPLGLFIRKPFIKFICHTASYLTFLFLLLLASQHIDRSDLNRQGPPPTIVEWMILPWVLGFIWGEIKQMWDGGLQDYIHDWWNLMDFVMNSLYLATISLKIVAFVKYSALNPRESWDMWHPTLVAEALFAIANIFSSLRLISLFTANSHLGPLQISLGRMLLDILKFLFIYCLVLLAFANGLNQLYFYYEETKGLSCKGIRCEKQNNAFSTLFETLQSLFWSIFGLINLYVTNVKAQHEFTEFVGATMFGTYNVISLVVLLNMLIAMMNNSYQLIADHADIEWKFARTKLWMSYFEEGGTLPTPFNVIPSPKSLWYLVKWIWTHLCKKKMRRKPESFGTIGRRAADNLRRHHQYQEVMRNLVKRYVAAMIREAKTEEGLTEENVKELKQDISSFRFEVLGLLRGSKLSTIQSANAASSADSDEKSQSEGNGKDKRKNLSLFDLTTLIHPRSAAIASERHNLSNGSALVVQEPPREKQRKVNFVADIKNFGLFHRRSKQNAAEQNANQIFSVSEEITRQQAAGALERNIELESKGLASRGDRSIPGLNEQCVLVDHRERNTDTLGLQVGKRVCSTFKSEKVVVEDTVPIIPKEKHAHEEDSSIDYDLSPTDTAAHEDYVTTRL

Large T antigen = Large T antigen (Simian virus 40, UniProt P03070); assay type: functional, Betapolyomavirus macacae;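 note: Confirmatory-stage PubChem screen for compounds that inhibit SV40 T antigen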
Chain of Large T antigen (P03070 whole entry): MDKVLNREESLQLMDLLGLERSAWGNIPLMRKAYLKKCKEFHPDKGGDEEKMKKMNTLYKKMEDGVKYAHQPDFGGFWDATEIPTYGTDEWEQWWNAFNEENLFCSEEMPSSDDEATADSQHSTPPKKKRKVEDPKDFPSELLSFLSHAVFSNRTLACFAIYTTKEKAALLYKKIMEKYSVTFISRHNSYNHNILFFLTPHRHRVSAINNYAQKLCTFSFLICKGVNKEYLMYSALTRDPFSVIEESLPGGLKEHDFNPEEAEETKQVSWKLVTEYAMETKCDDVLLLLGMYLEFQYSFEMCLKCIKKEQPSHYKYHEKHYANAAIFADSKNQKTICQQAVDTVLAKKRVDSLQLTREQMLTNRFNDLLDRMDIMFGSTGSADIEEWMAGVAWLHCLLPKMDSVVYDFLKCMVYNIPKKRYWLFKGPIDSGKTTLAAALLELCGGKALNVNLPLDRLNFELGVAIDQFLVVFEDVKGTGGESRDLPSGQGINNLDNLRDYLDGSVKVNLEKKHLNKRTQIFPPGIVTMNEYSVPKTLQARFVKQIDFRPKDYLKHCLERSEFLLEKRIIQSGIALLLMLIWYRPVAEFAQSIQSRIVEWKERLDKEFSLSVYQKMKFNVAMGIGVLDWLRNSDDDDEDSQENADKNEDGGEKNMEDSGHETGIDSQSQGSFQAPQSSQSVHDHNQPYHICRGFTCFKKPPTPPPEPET

[4] = target: Induced myeloid leukemia cell differentiation protein Mcl-1 (Homo sapiens, UniProt Q07820); assay type: functional
Chain of Induced myeloid leukemia cell differentiation protein Mcl-1 (Q07820 whole entry): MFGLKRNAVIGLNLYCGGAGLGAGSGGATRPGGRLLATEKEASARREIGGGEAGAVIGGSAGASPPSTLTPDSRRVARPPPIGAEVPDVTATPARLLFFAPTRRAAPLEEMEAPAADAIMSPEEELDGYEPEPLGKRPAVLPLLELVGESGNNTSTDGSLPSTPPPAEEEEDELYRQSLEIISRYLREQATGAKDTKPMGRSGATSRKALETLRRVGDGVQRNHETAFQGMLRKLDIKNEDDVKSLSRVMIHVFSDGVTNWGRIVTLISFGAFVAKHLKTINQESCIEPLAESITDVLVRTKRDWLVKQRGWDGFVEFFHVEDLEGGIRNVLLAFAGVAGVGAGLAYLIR

[5] = inhibitors of intracellular T. cruzi replication, confirmation, NIH3T3 host cells, beta-gal luminescence (AID 2044); assay type: functional, cell-based;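 note: intracellular parasites grown in NIH/3T3 mouse fibroblasts as host cells; luminescent beta-galactosidase reporter signal from transgenic T. cruzi replicating inside host cells; inhibitors lower the luminescence signal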
[6] = cytotoxicity toward NIH3T3 fibroblasts, dose response, counter-screen, cell-based, ATP luminescence, mouse fibroblasts (AID 2010); assay type: functional;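 note: cells exposed to compound for about 90 hours before reading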
[7] = target: T4, Polyadenylate-binding protein 1 (Homo sapiens, UniProt P11940); test: PABP1 MLLE–PAM2 interaction inhibitors, dose response, miRNA deadenylation inhibitor project, biochemical, fluorescence polarization, Cy5-PAM2 peptide, secondary (AID 602260); assay type: functional; conditions: read-out: IC50_Mean
T4 sequence (P11940 whole entry): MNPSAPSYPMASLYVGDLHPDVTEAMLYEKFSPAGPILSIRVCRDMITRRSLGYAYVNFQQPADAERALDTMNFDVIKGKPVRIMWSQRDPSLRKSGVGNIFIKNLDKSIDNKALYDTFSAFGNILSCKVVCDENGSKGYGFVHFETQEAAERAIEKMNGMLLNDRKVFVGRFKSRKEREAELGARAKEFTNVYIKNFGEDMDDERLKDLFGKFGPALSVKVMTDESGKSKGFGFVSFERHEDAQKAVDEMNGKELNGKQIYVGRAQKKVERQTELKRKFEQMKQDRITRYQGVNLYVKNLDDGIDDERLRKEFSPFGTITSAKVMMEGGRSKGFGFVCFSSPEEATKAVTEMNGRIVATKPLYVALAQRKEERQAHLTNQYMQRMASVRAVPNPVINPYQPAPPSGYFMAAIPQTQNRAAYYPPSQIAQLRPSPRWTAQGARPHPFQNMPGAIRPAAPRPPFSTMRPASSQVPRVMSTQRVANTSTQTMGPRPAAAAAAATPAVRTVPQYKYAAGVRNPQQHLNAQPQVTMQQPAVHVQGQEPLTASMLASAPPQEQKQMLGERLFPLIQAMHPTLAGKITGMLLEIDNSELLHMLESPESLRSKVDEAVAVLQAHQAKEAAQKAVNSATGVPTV

[8] = target: T4, Polyadenylate-binding protein 1; test: PABP1 MLLE–PAM2 binding inhibitor potency, dose response, biochemical, fluorescence polarization, FITC-PAM2 peptide (AID 602259); assay type: functional; conditions: read-out: IC50_Mean
[9] = target: T5, Corticotropin-releasing factor receptor 2/Corticotropin-releasing factor-binding protein (Homo sapiens, UniProt P24387+Q13324); test: activators of CRF receptor 2 with binding protein – uHTS hits, confirmation (AID 602473); assay type: functional; conditions: read-out: EC50_Mean
T5 sequence (Q13324 whole entry): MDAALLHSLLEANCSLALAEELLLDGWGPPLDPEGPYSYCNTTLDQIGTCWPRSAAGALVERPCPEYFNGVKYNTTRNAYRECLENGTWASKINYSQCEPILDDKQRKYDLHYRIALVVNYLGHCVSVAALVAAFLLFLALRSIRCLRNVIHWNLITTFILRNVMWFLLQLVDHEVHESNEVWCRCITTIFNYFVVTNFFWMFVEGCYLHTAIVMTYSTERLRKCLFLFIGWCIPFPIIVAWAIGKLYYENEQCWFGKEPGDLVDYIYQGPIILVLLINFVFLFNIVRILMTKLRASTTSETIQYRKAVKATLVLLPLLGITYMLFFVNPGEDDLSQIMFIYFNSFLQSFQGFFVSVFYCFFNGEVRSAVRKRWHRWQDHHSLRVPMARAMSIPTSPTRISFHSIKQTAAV
T5 sequence (P24387 whole entry): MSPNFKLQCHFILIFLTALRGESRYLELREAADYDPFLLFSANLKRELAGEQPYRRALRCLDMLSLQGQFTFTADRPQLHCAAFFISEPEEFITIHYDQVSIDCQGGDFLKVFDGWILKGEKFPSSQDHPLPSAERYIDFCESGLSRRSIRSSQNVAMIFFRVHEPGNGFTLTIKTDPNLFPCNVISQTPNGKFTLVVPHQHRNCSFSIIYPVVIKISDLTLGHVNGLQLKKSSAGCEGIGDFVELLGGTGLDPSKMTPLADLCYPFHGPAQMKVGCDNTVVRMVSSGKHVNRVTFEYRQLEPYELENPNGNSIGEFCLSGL

[10] = target: FAD-linked sulfhydryl oxidase ALR (Homo sapiens, UniProt P55789); test: inhibitors of human ALR sulfhydryl oxidase, dose response, biochemical, H2O2 detection, luminescence, cherry-pick (AID 493248)
Chain of FAD-linked sulfhydryl oxidase ALR (P55789 whole entry): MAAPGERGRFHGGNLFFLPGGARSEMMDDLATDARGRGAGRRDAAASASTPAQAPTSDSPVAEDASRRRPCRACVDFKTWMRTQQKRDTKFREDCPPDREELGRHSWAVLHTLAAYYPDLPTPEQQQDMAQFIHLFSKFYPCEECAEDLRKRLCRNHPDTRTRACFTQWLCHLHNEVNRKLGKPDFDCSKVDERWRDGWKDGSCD

INS1 = test: beta cell apoptosis inhibitors, cytokine rescue, dose response, luminescence, retest (AID 449756); assay type: functional, cell-based; conditions: Rattus norvegicus;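 note: cell death triggered by IL-1 beta plus TNF-alpha plus IFN-gamma mixture; protective hits raise ATP signal compared with cytokine alone wells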
[11] = intracellular Trypanosoma cruzi inhibitors in host cells – cell-based, plate reader, cherry-pick samples, set 3, dose response (AID 651818); assay type: functional;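 note: compounds incubated with infected cells for about four days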

EC50 [1]: 39.5 µM (active)
EC50 [2]: 6.35 µM (active)
Structure (SMILES): Cn1ncc2c(NNC(=O)c3ccc(O)cc3)ncnc21

EC50 [1]: 50.3 µM (active)
EC50 [2]: 58.4 µM (active)
Structure (SMILES): COc1ccccc1N=C(S)NNC(=O)c1cc(C)n(C)n1

EC50 [1]: > 300 µM (not active)
EC50 [2]: 173 µM (active)
Structure (SMILES): Cc1cccc(Oc2nc(-c3ccccn3)nc3ccccc23)c1

EC50 [1]: > 300 µM (not active)
EC50 [2]: > 300 µM (not active)
Structure (SMILES): CC1CN(C2CC(C)(C)NC(C)(C)C2)CCC1=O (stereo not drawn)

EC50 [3]: 0.133 µM (active)
Structure (SMILES): CCCN(CCC)CCCNC(=O)C1CCN(S(=O)(=O)c2cccc3nsnc23)CC1

IC50 (Large T antigen): 45.8 µM (active)
Structure (SMILES): COC(=O)CSc1nnc(CNc2ccc(OC)cc2)n1C

EC50 [3]: 1.88 µM (active)
Structure (SMILES): COC(=O)C1CCN(Cc2cn(-c3ccccc3)nc2-c2ccc3c(c2)OCO3)CC1

IC50 [4]: 9.1 µM (not active)
Structure (SMILES): C=CCc1c(C)nc(SCCC)nc1O

Structure (SMILES): Cc1ccc(C)c(OCCCCCn2ccnc2)c1
EC50 [5]: 505 nM (active)
EC50 [6]: 4.76 µM (active)
EC50 [3]: 3.35 µM (active)

IC50 [7]: > 66 µM (inactive)
IC50 [8]: > 66 µM (inactive)
Structure (SMILES): Cc1ccc(NC(S)=Nc2ccccn2)cc1C

IC50 [4]: > 54 µM (active)
EC50 [9]: 2.87 µM (active)
Structure (SMILES): CCOC(=O)c1c(-c2ccc(C)cc2)csc1NC(=O)/C(C#N)=C/c1ccc(O)c(OC)c1

IC50 [4]: 5.8 µM (active)
Structure (SMILES): O=C(CSc1ccsc1[N+](=O)[O-])N1CCN(c2ccc(Cl)cc2)CC1

Structure (SMILES): O=[N+]([O-])c1cc(-c2ccc([As](=O)(O)O)cc2)ccc1[As](=O)(O)O
EC50 [1]: 22.8 µM (inconclusive)
EC50 [2]: 18 µM (active)

IC50 [7]: > 66 µM (inactive)
IC50 [8]: > 66 µM (inactive)
Structure (SMILES): Cc1cccc(N(C)C(=O)CCS(=O)(=O)c2cc3c(cc2Cl)NC(=O)CO3)c1

EC50 [3]: 0.0267 µM (active)
Structure (SMILES): CC1CC(C)CN(CCCNS(=O)(=O)c2cc(Br)cc3c2N(C(=O)C2CC2)CC3)C1 (stereo not drawn)

EC50 [3]: 6.68 µM (active)
AC50 [10]: 8.25 µM (active)
Structure (SMILES): COc1ccc(N2CCN(Cc3nc4ccccc4n3C)CC2)cc1

IC50 (Large T antigen): 33.6 µM (active)
Structure (SMILES): COc1ccc(-c2c(-c3ccc(O)cc3O)n[nH]c2C)cc1OC

EC50 [1]: > 300 µM (not active)
EC50 [2]: > 300 µM (not active)
Structure (SMILES): CC1(C)CC(=O)C2=C(C1)OC(N)=C(C#N)C2c1ccc2c(c1)OCO2 (stereo not drawn)

IC50 [7]: > 66 µM (inactive)
IC50 [8]: > 66 µM (inactive)
Structure (SMILES): CC(C)c1ccc(O)c(NC(=S)NC(=O)CCc2ccccc2)c1

Structure (SMILES): Cc1cc(-c2ccccc2)cc(C)[n+]1Cc1ccccc1.[O-][Cl+3]([O-])([O-])[O-]
EC50 [3]: 1.88 µM (active)
AC50 (INS1): 719 nM (active)

IC50 [7]: > 66 µM (inactive)
IC50 [8]: > 66 µM (inactive)
Structure (SMILES): COc1ccc(/C(C)=N\NC(=O)CSc2nnc(C)s2)cc1

Structure (SMILES): Cc1noc(C)c1S(=O)(=O)Nc1cccc2c1O[C@H](CN(C)Cc1ccc(C(=O)Nc3ccccc3N)cc1)[C@H](C)CN([C@H](C)CO)C2=O
AC50 [11]: 3.53 µM (active)

Structure (SMILES): C[C@H](CO)N1C[C@H](C)[C@@H](CN(C)Cc2ccc(-c3ccccc3)cc2)Oc2c(NC(=O)CCCCCC(=O)Nc3ccccc3N)cccc2C1=O
AC50 [11]: 1.6 µM (active)

Structure (SMILES): C[C@H]1CN([C@@H](C)CO)C(=O)c2cccc(NS(=O)(=O)c3ccc(Cl)cc3)c2O[C@H]1CN(C)Cc1ccc(C(=O)Nc2ccccc2N)cc1
AC50 [11]: 2.28 µM (active)

Structure (SMILES): C[C@H](CO)N1C[C@H](C)[C@H](CN(C)S(=O)(=O)c2cccs2)Oc2c(NC(=O)c3nc4ccccc4s3)cccc2C1=O
AC50 [11]: 1.67 µM (active)

Structure (SMILES): C[C@@H]1CN([C@H](C)CO)C(=O)c2cccc(NC(=O)CCCCCC(=O)Nc3ccccc3N)c2O[C@H]1CN(C)CC1CCCCC1
AC50 [11]: 3.18 µM (active)

Structure (SMILES): Cc1ccc(S(=O)(=O)Nc2ccc3c(c2)C(=O)N([C@@H](C)CO)C[C@@H](C)[C@@H](CN(C)Cc2ccc(Cl)c(Cl)c2)O3)cc1
AC50 [11]: 3.36 µM (active)

Structure (SMILES): C[C@H]1CN([C@@H](C)CO)C(=O)Cc2cc(N(C)C)ccc2O[C@@H]1CN(C)Cc1ccc(C(F)(F)F)cc1
AC50 [11]: 0.991 µM (active)

IC50 [4]: 3.5 µM (not active)
Structure (SMILES): COc1ccc2[nH]c3c(=O)n(Cc4ccc(C(=O)N5CCCC5)cc4)c(=S)[nH]c3c2c1

IC50 [4]: < 0.4 µM (active)
Structure (SMILES): O=[N+]([O-])c1cccc(N/N=C/c2cc([N+](=O)[O-])ccc2O)c1

IC50 (Large T antigen): 10.4 µM (active)
Structure (SMILES): CCOc1cc(/C=N/NC(=O)CCn2nnc3ccccc32)ccc1O

IC50 (Large T antigen): 19.1 µM (active)
Structure (SMILES): COc1ccc(OC)c(/C=N/NC(=O)CCc2ccc(O)c(O)c2)c1

IC50 (Large T antigen): 17.1 µM (active)
Structure (SMILES): Oc1cccc2cnccc12
